In patent US6395726B1, “3,6-disubstituted penam sulfone derivatives” (priority 1999, dated 2002):
Read-outs that look alike come from different tables or passages of the source. Marks after values point to notes of the source that are not given here.

Tests used:
[1] = biological target: TEM-1 β-lactamase (Escherichia coli, UniProt P62593); test: β-lactamase inhibition, spectrophotometric, nitrocefin substrate; type: biochemical
[2] = system: E. coli (TEM-1, Class A); test: Microbiological assay, broth MIC in combination with piperacillin; type: cell-based; conditions: for MIC (μg/ml; 1:1) E. coli: piperacillin:inhibitor ratio 1:1, broth
Protocol: (§1) Representative compounds according to the present invention were tested in a microbiological assay in combination with the penicillin antibiotic piperacillin. The enhanced combined synergestic antibacterial activity is representative of the β-lactamase inhibitory properties of the compounds of the present invention. In these tests, minimum inhibitory […] (MIC's) are determined in broth using several two-fold dilutions with a 1:1 ratio of piperacillin to inhibitor (N. A. Kuck, N. V. Jacobus, P. J. Peterson, W. J. Weiss, and R. T. Testa, Antibiotic Agents and Chemotherapy, 33:1964-1969 (1989)).

[3] = system: S. marcescens (AmpC, Class C); test: as above; type: cell-based; conditions: for MIC (μg/ml; 1:1) S. marcescens: piperacillin:inhibitor ratio 1:1
Protocol: as §1

[4] = biological target: AmpC β-lactamase (UniProt P18539); type: biochemical; conditions: read-out: IC50 (nM) AmpC
[5] = 10 minute preincubation of enzyme with inhibitor at 25° C., nitrocefin substrate, read-out: IC50 (nM) TEM-1
[6] = 10 minute preincubation of enzyme with inhibitor at 25° C., nitrocefin substrate

Sequence of TEM-1 β-lactamase (P62593 24-286 limits assumed): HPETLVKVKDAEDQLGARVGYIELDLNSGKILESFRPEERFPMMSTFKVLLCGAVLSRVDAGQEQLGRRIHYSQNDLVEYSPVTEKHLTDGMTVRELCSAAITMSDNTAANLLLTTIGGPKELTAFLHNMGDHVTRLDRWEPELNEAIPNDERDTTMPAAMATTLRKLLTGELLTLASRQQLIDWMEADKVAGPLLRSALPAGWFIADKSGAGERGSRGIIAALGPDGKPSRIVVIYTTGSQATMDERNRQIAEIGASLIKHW

| Structure (SMILES) | IC50 [1] [nM] | IC50 [1, 5] [nM] | IC50 [4, 6] [nM] | MIC (μg/ml; 1:1) E. coli ([2]; strain GC6265, TEM-1 (Class A)) [µg/mL] | MIC (μg/ml; 1:1) S. marcescens ([3]; strain GC4132, AmpC (Class C)) [µg/mL] | IC50 [4] [nM] | also measured |
| --- | --- | --- | --- | --- | --- | --- | --- |
| C[C@]1(Cn2ccnn2)C(C(=O)[O-])N2C(=O)[C@@H](CO)C2S1(=O)=O.[Na+] (some centres unmarked) [Example 1] | 6 | – | – | – | – | – | MIC (μg/ml; 1:1) E. coli ([2]; strain GC2847, TEM-1 (Class A)): 2^c μg/ml; MIC (μg/ml; 1:1) S. marcescens ([3]; strain GC2894, AmpC (Class C)): 16^e μg/ml |
| C[C@]1(/C=C\C#N)[C@H](C(=O)O)N2C(=O)[C@@H](CO)[C@H]2S1(=O)=O [Example 2 (cis), (Z)-(2S,3S,5R,6R)-6-Hydroxymethyl-3-methyl-3-(3-nitrilo-propenyl)-4,4,7-trioxo-4-lambda(6)-thia-1-azabicyclo[3.2.0]heptane-2-carboxylic acid] | – | 19 | 270 | 4 | 8 | – | – |
| C[C@]1(/C=C/C#N)[C@H](C(=O)O)N2C(=O)[C@@H](CO)[C@H]2S1(=O)=O [Example 2 (trans), (E)-(2S,3S,5R,6R)-6-Hydroxymethyl-3-methyl-3-(3-nitrilo-propenyl)-4,4,7-trioxo-4-lambda(6)-thia-1-aza-bicyclo[3.2.0]heptane-2-carboxylic acid] | – | 74 | 280 | 16 | 4 | – | – |
| CON=C[C@@]1(C)[C@H](C(=O)O)N2C(=O)[C@@H](CO)[C@H]2S1(=O)=O [Example 3, (2S,3R,5R,6R)-6-Hydroxymethyl-3-(methoxyimino-methyl)-3-methyl-4,4,7-trioxo-4-lambda(6)-thia-1-aza-bicyclo[3.2.0]heptane-2-carboxylic acid] | 64 | – | – | 8 | 16 | 280 | – |
| CCN1CCN(C(=O)N[C@@H](C(=O)N[C@@H]2C(=O)N3[C@@H]2SC(C)(C)[C@@H]3C(=O)O)c2ccccc2)C(=O)C1=O [Piperacillin, reference compound] | – | – | – | – | – | – | MIC ([2]; Escherichia coli, read-out: MIC (μg/ml) E. coli): > 64 µg/mL; MIC ([3]; Serratia marcescens, strain GC4132, AmpC (Class C), piperacillin row, no inhibitor named, read-out: MIC (μg/ml) S. marcescens): 32 µg/mL |
| C[C@]1(Cn2ccnn2)[C@H](C(=O)O)N2C(=O)C[C@H]2S1(=O)=O [Tazobactam, reference compound] | – | – | – | 2 | 32 | 47700 | – |
